# Legend:
# SW620 = test: Colon cancer cell proliferation; type: cell-based; settings: SW620 (APC mutation); 5d, Vi-Cell viability assay
# Source text: (§1) FIGS. 5A-B show an image and graph illustrating validation of CBA-1. (A) CBA-1 repressed Wnt targets in LS174T CRC cells. (B) CBA-1 inhibited CRC cell proliferation (5d, Vi-Cell viability assay).
# (§2) Identification of a CBA-1 as a novel Wnt inhibitor. The present inventors routinely use TOPFlash reporter assay for Wnt inhibitor screening. To mimic the constitutively active Wnt signaling found in CRC cells, Wnt signaling was activated by inhibiting GSK3 and stabilizing β-catenin. From screening in house small-molecule libraries, CBA-1 (FIG. 4) was identified that inhibited Wnt signaling in TOPFlash reporter assay. To validate the screening results, CBA-1 was tested in CRC cells.
# Wnt signaling = test: Zebrafish Wnt signaling models; type: in vivo
# Source text: FIGS. 1A-F show a KDM3A inhibitor, called “58B1,” that inhibited Wnt signaling in vitro and in vivo. (A) Docking of 58B1 to the Jumonji domain. (B) 58B1 inhibited KDM3A enzymatic activity in vitro. (C) KDM3A was overexpressed in CRC. (D) 58B1 increased repressor markers, H3K9Me^2 and K3K9Me^3. (E) 58B1 inhibited Wnt target genes in CRC cells. (F) 58B1 inhibited Wnt signaling in a transgenic zebrafish model. In this model, GFP was control by a Wnt-responsive promoter. In the control fish, GFP was expressed in the tail, where has higher levels on Wnt signaling. 58B1 treatment abolished GFP expression in the tail.
# CBA-1 inhibited Wnt signaling in Zebrafish models. Zebrafish provide a well-established in vivo model to study Wnt signaling. Wnt signaling is active in the tail of the larvae during development (FIG. 4), and CBA-1 inhibited Wnt signaling in the tail. […] To rule out the possibility that CBA-1 inhibits the Wnt-mediated phenotype through nonspecific or even toxic effects, an eye-rescue experiment was performed.
# LS174T = test: Colon cancer cell proliferation; type: cell-based
# Protocol: as §1
# (§3) The effects of these compounds on proliferation of colon cancer cell line LS174T and DLD1 were analyzed.
# as §2
# DLD1 = test: Colon cancer cell proliferation; type: cell-based
# Protocol: as §1, §3, §2
# [1] = system: histone methylation in HEK293T cells; test: Histone methylation in HEK293T cells; type: cell-based; settings: 5 μM
# Protocol: To determine if 58B1 regulates Wnt signaling through epigenetic mechanism, the effects of 58B1 on histone methylation were analyzed. […] Similar results were found in LS174T colon cancer cells. H3K9 and H3K27 methylations are negative regulators of transcription. Without wishing to be bound by theory, it is believed that 58B1 inhibited Wnt signaling by increasing H3K9 or H3K27 methylation on Wnt target gene promotors.
# CRC cells = test: CRC cell proliferation; type: cell-based
# Source text: KDM3A is a Jumonji domain-containing demethylase that regulates the demethylation of histone H3's lysine 9 (H3K9Me^2).
# KDM3B = KDM3B (Homo sapiens, UniProt Q7LBC6); test: KDM3B enzymatic activity; type: biochemical; settings: at 10 μM
# Chain of KDM3B (Q7LBC6 whole entry, the tested form may be a part): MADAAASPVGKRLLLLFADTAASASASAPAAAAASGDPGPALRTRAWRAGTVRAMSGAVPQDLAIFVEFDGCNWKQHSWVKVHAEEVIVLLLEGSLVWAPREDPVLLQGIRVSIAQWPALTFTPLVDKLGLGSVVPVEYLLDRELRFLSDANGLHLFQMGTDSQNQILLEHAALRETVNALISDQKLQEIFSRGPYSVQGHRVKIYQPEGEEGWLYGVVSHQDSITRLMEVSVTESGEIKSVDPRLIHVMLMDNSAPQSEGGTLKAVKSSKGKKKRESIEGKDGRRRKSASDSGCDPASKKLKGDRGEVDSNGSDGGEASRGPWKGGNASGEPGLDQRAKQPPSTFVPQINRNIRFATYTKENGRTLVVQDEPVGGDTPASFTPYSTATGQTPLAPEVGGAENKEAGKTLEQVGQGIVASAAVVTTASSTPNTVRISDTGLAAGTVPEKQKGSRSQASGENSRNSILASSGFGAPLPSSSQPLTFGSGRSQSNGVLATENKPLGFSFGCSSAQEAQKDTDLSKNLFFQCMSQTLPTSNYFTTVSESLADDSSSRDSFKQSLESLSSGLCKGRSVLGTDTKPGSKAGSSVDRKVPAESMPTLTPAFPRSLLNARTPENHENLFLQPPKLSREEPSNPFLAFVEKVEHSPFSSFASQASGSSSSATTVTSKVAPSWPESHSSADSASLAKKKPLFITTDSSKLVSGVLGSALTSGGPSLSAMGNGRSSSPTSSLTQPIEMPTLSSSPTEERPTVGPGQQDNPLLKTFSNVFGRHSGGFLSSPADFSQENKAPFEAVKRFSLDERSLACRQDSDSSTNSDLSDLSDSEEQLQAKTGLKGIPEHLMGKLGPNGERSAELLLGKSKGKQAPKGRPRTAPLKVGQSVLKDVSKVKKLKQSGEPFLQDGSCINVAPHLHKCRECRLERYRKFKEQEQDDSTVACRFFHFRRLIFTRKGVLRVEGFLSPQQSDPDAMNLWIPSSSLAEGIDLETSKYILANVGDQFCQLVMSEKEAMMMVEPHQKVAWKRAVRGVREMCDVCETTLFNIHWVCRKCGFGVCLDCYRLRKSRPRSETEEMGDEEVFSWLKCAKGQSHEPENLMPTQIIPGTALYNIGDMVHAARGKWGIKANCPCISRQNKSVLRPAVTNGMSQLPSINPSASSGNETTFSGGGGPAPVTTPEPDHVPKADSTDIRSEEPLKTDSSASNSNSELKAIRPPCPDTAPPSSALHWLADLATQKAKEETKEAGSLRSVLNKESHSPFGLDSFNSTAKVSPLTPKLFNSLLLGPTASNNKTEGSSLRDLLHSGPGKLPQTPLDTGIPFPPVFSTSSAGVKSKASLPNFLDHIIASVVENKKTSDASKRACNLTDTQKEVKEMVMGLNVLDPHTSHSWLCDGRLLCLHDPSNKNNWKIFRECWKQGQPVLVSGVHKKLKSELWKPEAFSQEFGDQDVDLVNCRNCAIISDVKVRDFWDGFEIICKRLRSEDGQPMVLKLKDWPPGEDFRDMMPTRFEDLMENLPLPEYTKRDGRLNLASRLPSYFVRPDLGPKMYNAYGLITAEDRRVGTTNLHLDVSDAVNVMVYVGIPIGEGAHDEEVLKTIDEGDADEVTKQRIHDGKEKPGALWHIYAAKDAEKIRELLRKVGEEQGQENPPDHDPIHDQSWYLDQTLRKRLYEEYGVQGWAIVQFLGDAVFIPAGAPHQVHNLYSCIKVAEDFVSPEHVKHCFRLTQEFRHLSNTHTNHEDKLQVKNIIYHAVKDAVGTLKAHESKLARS
# Source text: Other KDM3 members as CBA-1 targets. Inhibition of KDM3A by CBA-1 increased H3K9Me^2 and inhibited Wnt signaling; however, other KDM3 members may also regulate H3K9 methylation. For example, both KDM3B and KDM3C (JMJD1C) regulated Wnt signaling. Given the high similarity of their structures (FIG. 10A), particularly the JmjC domains, it is believed that CBA-1 would inhibit KDM3B and KDM3C as well. […] CBA-1 coordinated with Mn^2+ at a longer distance in KDM3B (3.9 Å) than the distance in KDM3A (2.8 Å) (FIGS. 8B and 10B). This could be one of the reasons that CBA-1 inhibited KDM3A better than KDM3B.
# Repurposing drugs as CBA-1 analogs and KDM3 inhibitors. CBA-1 is a specific and potent KDM3A inhibitor. As backup candidates, two approved drugs were identified as CBA-1 analogs and KDM3A inhibitors. Based on the docking study (FIGS. 8A-B), the N and OH groups (red color in FIG. 12A) are critical in binding the Mn^2+ in KDM3A. […] A virtual screening was performed and several antibiotics that have similar structures were identified. Two of these antibiotics, clioquinol and nitroxoline (FIG. 12B), indeed inhibited the enzymatic activities of KDM3 (FIGS. 12C and D). These two drugs were tested in LS174T tumor xenograft model in SCID mice. […] Nitroxoline has been used in Europe for over 50 years as an antibiotic. It has anticancer effects, but the mechanism remains unclear.
# [2] = system: H3K9Me2 on the promoter of c-Myc gene; test: ChIP assay followed by qPCR; type: cell-based
# Source text: CBA-1 increased repressive histone methylation on Wnt target genes. The present inventors reported that mutations in APC or β-catenin N-terminal phosphorylation sites prevented β-catenin degradation in CRC cells. […] Because CBA-1 inhibited Wnt signaling in CRC cells, it was reasonable to assume that it inhibited Wnt signaling downstream of β-catenin, most likely by blocking β-catenin activity in the nucleus. Consequently, the present inventors hypothesized that CBA-1 inhibited Wnt signaling epigenetically by altering chromatin remodeling, and they probed the effects of CBA-1 on histone methylation in CRC cells.
smiles,measurement,setting,value
CCCC(=O)NC(c1ccc(N(CC)CC)cc1)c1cc(Cl)c2cccnc2c1O (centres unmarked) [58B1],proliferation of CRC cell lines,SW620,inhibited proliferation
same,GFP expression in the tail (Wnt-responsive promoter),Wnt signaling; transgenic zebrafish model,abolished
same,Wnt-dependent tail regeneration,Wnt signaling; zebrafish,reduced
same,toxicity in eye-rescue experiment,Wnt signaling; zebrafish,without obvious toxicity effects
same,Wnt signaling in the tail,Wnt signaling; zebrafish larvae,inhibited
same,Wnt-induced eye defects (eye-rescue experiment),"Wnt signaling; zebrafish, dose-responsive manner",rescued
same,proliferation of CRC cell lines,"LS174T; LS174T (β-catenin mutation), 5d, Vi-Cell viability assay",inhibited proliferation
same,proliferation of colon cancer cell line,"LS174T; LS174T, at low nanomolar concentrations",strongly inhibited
same,proliferation of CRC cell lines,"DLD1; DLD1 (APC mutation), 5d, Vi-Cell viability assay",inhibited proliferation
same,proliferation of colon cancer cell line,"DLD1; DLD1, at low nanomolar concentrations",strongly inhibited
same,H3K4me^2,[1],not
same,H3K9Me^3,[1],induced
same,H3K9 dimethylation (H3K9Me^2),[1],strongly induced
same,H3K27Me^3,[1],induced
same,CRC cell proliferation,CRC cells; at 100 nM concentration,inhibited
same,sensitivity of CRC cells compared with normal colon cells,CRC cells; expected,more sensitive
same,KDM3B inhibition,KDM3B,weakly inhibits
same,levels of H3K9Me2 on the promoter of c-Myc gene,"[2]; ChIP, qPCR",increased
same,active markers H3K9Ac and H3K4Me^3 on the promoter of Wnt target genes in CRC cells,[2]; expected,decrease
same,repressive marker H3K9Me^2 on the promoter of Wnt target genes in CRC cells,[2]; expected,increase

# From patent US12599597B2, “Substituted N-benzhydrylacetamide inhibitors of jumanji domain histone demethylases for the treatment of cancer” (University of Kentucky Research Foundation, priority 2020, dated 2026)
